In experiment [1] the target is full length human FXR protein (Homo sapiens (Human), UniProt Q96RI1). The experiment in a line: FXR cellular assay (FXR-SRCP β-gal enzyme fragment complementation in CHO-K1 cells, chemiluminescence). Type of experiment: cell-based. The settings on record: CHO-K1 cells with SRCP-EA and ProLink-labeled FXR, 0-10 micromolar compound, 37° C. for 6h, read-out: EC50 FXR-cell Luminescence/. The text has this:
A cell based FXR assay was used to detect protein-protein interactions between an activated (ligand-bound), full length human FXR protein and a nuclear fusion protein containing a Steroid Receptor Coactivator Peptide (SCRP) domain. In this approach, two weakly complementing fragments of the 3-gal enzyme were expressed within stably transfected Chinese Hamster Ovary (CHO-K1) cells. The complementing fragments of the 3-gal enzyme (ProLink, PK; and Enzyme Acceptor, EA) were translationally fused to the C-terminus of a full-length FXR and to the SRCP, respectively. Complementation was driven by the protein-protein interaction between SRCP-EA and a ProLink-labeled FXR. Upon FXR-SRCP binding, the two fragments of 3-gal complement, forming a functional enzyme capable of hydrolyzing a substrate molecule and generating a chemiluminescent signal.
CHO-K1 cells containing SRCP-EA and ProLink-labeled FXR were plated in 384-well microplates and incubated at 37° C. overnight. A positive control FXR agonist, GW4064 (0-10 micromolar), or test compounds (0-10 micromolar) were added to plated cells and incubated at 37° C. for 6h (final DMSO vehicle concentration was 1%). The assay signal was generated by addition of 50% (v/v) detection reagent (19:5:1, cell assay buffer: substrate reagent 1: substrate reagent 2, DiscoverX) followed by incubation for 1h at ambient room temperature. Microplates were analyzed using an Envision reader (PerkinElmer Life and Analytical Sciences, Signal=chemiluminescence).

For experiment [2], the target named is ligand binding domain (LBD) of recombinant human FXR (Homo sapiens (Human), UniProt Q96RI1). The experiment can be described thus: FXR cell free coactivator (SRC-1) recruitment assay, TR-FRET. The settings on record: FXR LBD (amino acids 244-476) with labeled SRC-1 domain, 25° C. for 60 minutes, activity relative to CDCA maximum; read-out: EC50 FXR- Biochemical TR-FRET/μM. As to the method:
A cell free coactivator recruitment assay was developed for FXR, to measure the functional potency of novel FXR compounds. In this assay, novel FXR compounds were bound to the ligand binding domain (LBD) of recombinant human FXR. The ability of this liganded homodimeric complex to recruit the co-activator protein steroid receptor coactivator 1 (SRC-1) was measured using Time-Resolved Fluorescence Resonance Energy Transfer (TR-FRET).
The LBD of human FXR (amino acids 244-476) was cloned into an expression vector for protein expression in SF9 insect cells. Purified FXR LBD was incubated in TR-FRET coregulator buffer G (Eurofins) with test compounds (0-10 micromolar) and a labeled nuclear receptor interaction domain of SRC-1 at 25° C. for 60 minutes (final DMSO vehicle concentration was 1.2%). Assays were analyzed using an Envision TR-FRET reader (PerkinElmer Life and Analytical Sciences). Compound activity at each concentration was defined as a percentage of the maximal activity of the natural FXR ligand agonist chenodeoxycholic acid (CDCA) generating a dose response curve.
(In general: Time-resolved FRET reads energy transfer from a long-lived donor to a nearby acceptor.)

Sequence of full length human FXR protein (Q96RI1 whole entry, the tested form may be a part): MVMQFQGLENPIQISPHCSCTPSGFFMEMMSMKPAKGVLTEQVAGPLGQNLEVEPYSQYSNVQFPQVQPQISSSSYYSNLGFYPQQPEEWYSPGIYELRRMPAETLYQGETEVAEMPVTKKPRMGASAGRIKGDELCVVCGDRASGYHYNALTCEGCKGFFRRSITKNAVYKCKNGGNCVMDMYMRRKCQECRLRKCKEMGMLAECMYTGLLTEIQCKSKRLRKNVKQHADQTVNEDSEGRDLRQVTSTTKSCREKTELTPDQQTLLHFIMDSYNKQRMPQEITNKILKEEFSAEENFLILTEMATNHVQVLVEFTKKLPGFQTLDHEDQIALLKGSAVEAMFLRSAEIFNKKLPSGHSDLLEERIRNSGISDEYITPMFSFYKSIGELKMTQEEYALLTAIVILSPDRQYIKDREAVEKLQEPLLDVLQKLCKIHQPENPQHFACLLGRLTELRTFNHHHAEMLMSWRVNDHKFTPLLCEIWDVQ
Sequence of ligand binding domain (LBD) of recombinant human FXR (Q96RI1 254-486): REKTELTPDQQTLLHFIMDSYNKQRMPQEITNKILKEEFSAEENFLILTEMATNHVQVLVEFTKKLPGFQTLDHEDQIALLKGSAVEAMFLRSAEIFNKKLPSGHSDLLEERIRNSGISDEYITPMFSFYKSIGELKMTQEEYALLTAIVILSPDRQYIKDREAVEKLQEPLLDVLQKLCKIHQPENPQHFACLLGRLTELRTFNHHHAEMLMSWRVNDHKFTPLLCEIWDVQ
Sequence of ligand binding domain (LBD) of recombinant human FXR (Q15788 whole entry partner, the tested form may be a part): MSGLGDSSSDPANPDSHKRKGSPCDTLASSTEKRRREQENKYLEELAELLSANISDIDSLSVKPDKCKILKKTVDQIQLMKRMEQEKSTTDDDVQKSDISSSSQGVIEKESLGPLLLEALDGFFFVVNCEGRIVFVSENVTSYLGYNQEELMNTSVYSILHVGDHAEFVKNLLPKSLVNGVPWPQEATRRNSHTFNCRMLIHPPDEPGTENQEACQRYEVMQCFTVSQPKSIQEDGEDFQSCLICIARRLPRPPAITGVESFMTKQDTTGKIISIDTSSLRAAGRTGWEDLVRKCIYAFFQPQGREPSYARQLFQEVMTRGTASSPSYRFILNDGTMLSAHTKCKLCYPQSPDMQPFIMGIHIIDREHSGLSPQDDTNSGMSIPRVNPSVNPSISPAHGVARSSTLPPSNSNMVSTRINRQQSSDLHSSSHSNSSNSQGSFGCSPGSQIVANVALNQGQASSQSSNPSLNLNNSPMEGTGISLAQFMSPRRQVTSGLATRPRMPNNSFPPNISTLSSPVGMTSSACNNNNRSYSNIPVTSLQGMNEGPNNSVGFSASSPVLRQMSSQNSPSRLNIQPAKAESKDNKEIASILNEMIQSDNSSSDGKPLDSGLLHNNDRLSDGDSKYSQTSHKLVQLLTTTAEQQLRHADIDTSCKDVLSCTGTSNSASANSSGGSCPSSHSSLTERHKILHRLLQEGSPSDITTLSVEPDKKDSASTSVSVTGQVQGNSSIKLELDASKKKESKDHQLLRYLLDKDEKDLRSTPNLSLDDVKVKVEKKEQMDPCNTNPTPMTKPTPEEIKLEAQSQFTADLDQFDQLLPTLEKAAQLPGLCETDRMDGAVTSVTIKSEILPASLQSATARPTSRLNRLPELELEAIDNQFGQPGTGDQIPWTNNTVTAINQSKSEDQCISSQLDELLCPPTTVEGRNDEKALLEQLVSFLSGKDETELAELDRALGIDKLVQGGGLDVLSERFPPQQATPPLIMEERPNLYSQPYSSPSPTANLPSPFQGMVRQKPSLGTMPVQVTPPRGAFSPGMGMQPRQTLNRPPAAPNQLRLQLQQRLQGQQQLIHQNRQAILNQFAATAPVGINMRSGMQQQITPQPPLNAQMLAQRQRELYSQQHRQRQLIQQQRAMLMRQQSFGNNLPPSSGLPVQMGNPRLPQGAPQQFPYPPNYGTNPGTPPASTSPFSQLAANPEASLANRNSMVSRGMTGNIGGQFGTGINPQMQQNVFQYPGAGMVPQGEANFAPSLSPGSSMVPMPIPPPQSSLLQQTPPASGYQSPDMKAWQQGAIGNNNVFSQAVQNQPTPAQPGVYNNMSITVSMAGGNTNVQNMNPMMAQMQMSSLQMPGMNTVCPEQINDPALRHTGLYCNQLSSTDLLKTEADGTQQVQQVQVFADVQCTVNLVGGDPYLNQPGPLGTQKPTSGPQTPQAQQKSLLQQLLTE

With `O=c1[nH]c(-c2ccc(N3CCC(OCc4c(-c5c(Cl)cccc5Cl)noc4C4CC4)C(F)(F)C3)cc2)no1` (stereo not drawn) [Example 53, 3-(4-(4-((5-cyclopropyl-3-(2,6-dichlorophenyl)isoxazol-4-yl)methoxy)-3,3-difluoropiperidin-1-yl)phenyl)-1,2,4-oxadiazol-5(4H)-one], the EC50 is 94.3 nM in experiment [1] and 0.009 µM in experiment [2]. For `O=C(c1noc(=O)[nH]1)N1CCC(OCc2c(-c3c(Cl)cccc3Cl)noc2C2CC2)CC1` [Example 1, 3-(4-((5-cyclopropyl-3-(2,6-dichlorophenyl)isoxazol-4-yl)methoxy)piperidine-1-carbonyl)-1,2,4-oxadiazol-5(4H)-one], in that order: 1130 nM and 3.18 µM. Taken in the same sequence, the figures for `O=c1[nH]nc(-c2ccc(N3CCC(OCc4c(-c5c(Cl)cccc5Cl)noc4C4CC4)CC3)cc2)c(=O)[nH]1` [Example 10, 6-(4-(4-((5-cyclopropyl-3-(2,6-dichlorophenyl)isoxazol-4-yl)methoxy)piperidin-1-yl)phenyl)-1,2,4-triazine-3,5(2H,4H)-dione] were 409 nM and 0.0091 µM. Regarding `O=c1[nH]c(-c2ccc(N3CCC(OCc4c(-c5c(F)cccc5F)noc4C4CC4)CC3)nc2)no1` [Example 74, 3-(6-(4-((5-cyclopropyl-3-(2,6-difluorophenyl)isoxazol-4-yl)methoxy)piperidin-1-yl)pyridin-3-yl)-1,2,4-oxadiazol-5(4H)-one], the EC50 was determined as 1450 nM in experiment [1] and 0.107 µM in experiment [2]. Taken in the same sequence, the figures for `O=c1[nH]c(-c2ccc(N3CCC(OCc4c(-c5ccccc5Cl)noc4C4CC4)CC3)cc2)no1` [Example 44, 3-(4-(4-((3-(2-chlorophenyl)-5-cyclopropylisoxazol-4-yl)methoxy)piperidin-1-yl)phenyl)-1,2,4-oxadiazol-5(4H)-one] were 371 nM and 0.0213 µM. On to `C[C@@H]1C[C@H](OCc2c(-c3c(Cl)cccc3Cl)noc2C2CC2)CCN1c1ccc(-c2noc(=O)[nH]2)cn1` [Example 71, 3-(6-((2R,4R)-4-((5-cyclopropyl-3-(2,6-dichlorophenyl)isoxazol-4-yl)methoxy)-2-methylpiperidin-1-yl)pyridin-3-yl)-1,2,4-oxadiazol-5(4H)-one], for which the results for the EC50 in experiment [1] and in experiment [2] were 24.7 nM and 0.0021 µM, respectively. Taken in the same sequence, the figures for `C[C@@H]1C[C@H](OCc2c(-c3c(F)cccc3F)noc2C2CC2)CCN1c1ccc(-c2noc(=O)[nH]2)cn1` [Example 73, 3-(6-((2R,4R)-4-((5-cyclopropyl-3-(2,6-difluorophenyl)isoxazol-4-yl)methoxy)-2-methylpiperidin-1-yl)pyridin-3-yl)-1,2,4-oxadiazol-5(4H)-one] were 350 nM and 0.0476 µM. For `O=c1[nH]c(-c2ccc(N3CCC(OCc4c(-c5c(Cl)cccc5Cl)noc4C4CC4)CC3)cc2Cl)no1` [Example 14, 3-(2-chloro-4-(4-((5-cyclopropyl-3-(2,6-dichlorophenyl)isoxazol-4-yl)methoxy)piperidin-1-yl)phenyl)-1,2,4-oxadiazol-5(4H)-one], in that order: 64 nM and 0.0085 µM. For `O=c1[nH]nc(-c2ccc(N3CCC(OCc4c(-c5c(Cl)cccc5Cl)noc4C4CC4)CC3)nc2)o1` [Example 37, 5-(6-(4-((5-cyclopropyl-3-(2,6-dichlorophenyl)isoxazol-4-yl)methoxy)piperidin-1-yl)pyridin-3-yl)-1,3,4-oxadiazol-2(3H)-one], in that order: 274 nM and 0.0494 µM. With `C[C@H]1C[C@H](OCc2c(-c3c(Cl)cccc3Cl)noc2C2CC2)CCN1c1ccc(-c2noc(=O)[nH]2)cc1` [Example 20, 3-(4-((2S,4R)-4-((5-cyclopropyl-3-(2,6-dichlorophenyl)isoxazol-4-yl)methoxy)-2-methylpiperidin-1-yl)phenyl)-1,2,4-oxadiazol-5(4H)-one], the EC50 in experiment [1] is 398 nM; in experiment [2], 0.114 µM. For the compound `Clc1cccc(Cl)c1-c1noc(C2CC2)c1COC1CCN(c2ccc(C3=NN3)cc2)CC1` [Example 2, 4-(((1-(4-(1H-diazirin-3-yl)phenyl)piperidin-4-yl)oxy)methyl)-5-cyclopropyl-3-(2,6-dichlorophenyl)isoxazole], the results for the EC50 in experiment [1] and in experiment [2] were 691 nM and 2.89 µM, respectively.

With `O=c1[nH]c(-c2ccc(N3CCC(OCc4c(-c5c(Cl)cccc5Cl)noc4C4CC4)CC3)cn2)no1` [Example 9, 3-(5-(4-((5-cyclopropyl-3-(2,6-dichlorophenyl)isoxazol-4-yl)methoxy)piperidin-1-yl)pyridin-2-yl)-1,2,4-oxadiazol-5(4H)-one], the EC50 in experiment [1] is 1590 nM; in experiment [2], 0.175 µM.

As to `O=c1[nH]nc(-c2ccc(N3CCC(OCc4c(-c5c(Cl)cccc5Cl)noc4C4CC4)CC3)cc2F)c(=O)[nH]1` [Example 41, 6-(4-(4-((5-cyclopropyl-3-(2,6-dichlorophenyl)isoxazol-4-yl)methoxy)piperidin-1-yl)-2-fluorophenyl)-1,2,4-triazine-3,5(2H,4H)-dione], the EC50 in experiment [1] was determined as 244 nM; in experiment [2] it was 0.0584 µM.

For `C[C@H]1C[C@@H](OCc2c(-c3c(Cl)cccc3Cl)noc2C2CC2)CCN1c1ccc(-c2noc(=O)[nH]2)cc1` [Example 22, 3-(4-((2S,4S)-4-((5-cyclopropyl-3-(2,6-dichlorophenyl)isoxazol-4-yl)methoxy)-2-methylpiperidin-1-yl)phenyl)-1,2,4-oxadiazol-5(4H)-one], the EC50 turned out to be 418 nM in experiment [1] and 0.0633 µM in experiment [2].

For `O=c1[nH]c(-c2ccc(N3CCC(OCc4c(-c5ccccc5OC(F)(F)F)noc4C4CC4)C(F)(F)C3)cc2)no1` (stereo not drawn) [Example 54, 3-(4-(4-((5-cyclopropyl-3-(2-(trifluoromethoxy)phenyl)isoxazol-4-yl)methoxy)-3,3-difluoropiperidin-1-yl)phenyl)-1,2,4-oxadiazol-5(4H)-one], the results for the EC50 in experiment [1] and in experiment [2] were 715 nM and 0.0376 µM, respectively.

On to `O=c1cc(-c2ccc(N3[C@@H]4CC[C@H]3C[C@@H](OCc3c(-c5ccccc5OC(F)(F)F)noc3C3CC3)C4)cc2)o[nH]1` [Example 81, 5-(4-((1R,3r,5S)-3-((5-cyclopropyl-3-(2-(trifluoromethoxy)phenyl)isoxazol-4-yl)methoxy)-8-azabicyclo[3.2.1]octan-8-yl)phenyl)isoxazol-3(2H)-one], for which, in experiment [1], the EC50 turned out to be 175 nM. Still for that read-out and setting: for `O=c1cc(-c2ccc(N3CCC(OCc4c(-c5c(Cl)cccc5Cl)noc4C4CC4)C(F)(F)C3)cc2)o[nH]1` (stereo not drawn) [Example 87, 5-(4-(4-((5-cyclopropyl-3-(2,6-dichlorophenyl)isoxazol-4-yl)methoxy)-3,3-difluoropiperidin-1-yl)phenyl)isoxazol-3(2H)-one] the value was 261 nM. On the same count and under the same terms, the figure for `O=c1[nH]c(-c2ccc(N3CC[C@H](OCc4c(-c5ccccc5OC(F)(F)F)noc4C4CC4)[C@@H](F)C3)cc2)no1` [Example 80, 3-(4-((3S,4S)-4-((5-cyclopropyl-3-(2-(trifluoromethoxy)phenyl)isoxazol-4-yl)methoxy)-3-fluoropiperidin-1-yl)phenyl)-1,2,4-oxadiazol-5(4H)-one] is 641 nM; for `O=c1[nH]c(-c2ccc(N3[C@@H]4CC[C@H]3C[C@@H](OCc3c(-c5c(F)cccc5F)noc3C3CC3)C4)nc2)no1` [Example 78, 3-(6-((1R,3r,5S)-3-((5-cyclopropyl-3-(2,6-difluorophenyl)isoxazol-4-yl)methoxy)-8-azabicyclo[3.2.1]octan-8-yl)pyridin-3-yl)-1,2,4-oxadiazol-5(4H)-one] it is 154 nM; for `O=c1[nH]c(-c2ccc(N3[C@@H]4CC[C@H]3C[C@@H](OCc3c(-c5ccccc5Cl)noc3C3CC3)C4)nc2)no1` [Example 77, 3-(6-((1R,3r,5S)-3-((3-(2-chlorophenyl)-5-cyclopropylisoxazol-4-yl)methoxy)-8-azabicyclo[3.2.1]octan-8-yl)pyridin-3-yl)-1,2,4-oxadiazol-5(4H)-one] it is 69.5 nM. Turning to `O=c1[nH]c(-c2ccc(N3CCC(OCc4c(-c5ccccc5OC(F)(F)F)noc4C4CC4)CC3)nc2)no1` [Example 75, 3-(6-(4-((5-cyclopropyl-3-(2-(trifluoromethoxy)phenyl)isoxazol-4-yl)methoxy)piperidin-1-yl)pyridin-3-yl)-1,2,4-oxadiazol-5(4H)-one], in experiment [1], the EC50 was determined as 382 nM.

(Values after patent US20240116912A1, “COMPOUNDS AND METHODS FOR MODULATING FXR” (Terns Pharmaceuticals, Inc., priority 2020, published 2024).)
